What all share (assay type): functional, cell-based
The subject of one experiment is L929. Description: Anti-necroptotic activity in TZ-induced mouse L929 cells assessed as increase in cell viability preincubated with Z-VAD-FMK followed by mTNFalpha stimulation for 4 hrs and measured after compound addition by CellTiter-Lumi luminescent cell viability assay.
A further experiment deals with HT-29. Kind of experiment: Anti-necroptotic activity in TSZ-induced human HT-29 cells assessed as increase in cell viability preincubated with Z-VAD-FMK and SM164 for 30 mins followed by TNFalpha stimulation for 12 hrs and measured after compound addition by CellTiter-Lumi luminescent cell viability assay.
The next experiment concerns RAW264.7. Kind of experiment: Anti-necroptotic activity in LZ-induced mouse RAW264.7 cells assessed as increase in cell viability preincubated with compound followed by LPS and Z-VAD-FMK stimulation and measured after 16 hrs by CellTiter-Lumi luminescent cell viability assay.

Structures are written as SMILES.

In the case of `CC1(C)CC[C@]2(C(=O)n3nnc4ccccc43)CC[C@]3(C)[C@H](C(=O)C=C4[C@@]5(C)C=C(C#N)C(=O)C(C)(C)[C@@H]5CC[C@]43C)[C@@H]2C1`, the concentration for a half-maximal effect (EC50) is over 10 µM in the experiment on L929 and 9.98 µM with HT-29.

Regarding `CC1(C)CC[C@]2(C(=O)Nc3ccc4scnc4c3)CC[C@]3(C)[C@H](C(=O)C=C4[C@@]5(C)C=C(C#N)C(=O)C(C)(C)[C@@H]5CC[C@]43C)[C@@H]2C1`, the values for the half-maximal effective concentration (EC50) in the experiment with L929 and in the experiment with HT-29 were 4.01 µM and 1.38 µM, respectively. Moreover, in the experiment on RAW264.7, the Activity result is “Dose-dependent-effect”.

Consider `CC1(C)CC[C@]2(C(=O)Nc3ccc4[nH]ccc4c3)CC[C@]3(C)[C@H](C(=O)C=C4[C@@]5(C)C=C(C#N)C(=O)C(C)(C)[C@@H]5CC[C@]43C)[C@@H]2C1`, for which the EC50 in the experiment with L929 was over 10 µM; in the experiment with HT-29 it was 4.08 µM.

With `CC1(C)CC[C@]2(C(=O)Nc3cnc4ccccc4n3)CC[C@]3(C)[C@H](C(=O)C=C4[C@@]5(C)C=C(C#N)C(=O)C(C)(C)[C@@H]5CC[C@]43C)[C@@H]2C1`, the values for the EC50 in the experiment with L929 and in the experiment on HT-29 were over 10 µM and 2.39 µM, respectively.

For the molecule `CC1(C)CC[C@]2(C(=O)Nc3ccc4ncsc4c3)CC[C@]3(C)[C@H](C(=O)C=C4[C@@]5(C)C=C(C#N)C(=O)C(C)(C)[C@@H]5CC[C@]43C)[C@@H]2C1`, the EC50 with L929 was over 10 µM; in the experiment on HT-29, 3.56 µM.

On to `CC1(C)CC[C@]2(C(=O)N3CCc4ccccc43)CC[C@]3(C)[C@H](C(=O)C=C4[C@@]5(C)C=C(C#N)C(=O)C(C)(C)[C@@H]5CC[C@]43C)[C@@H]2C1`, for which the EC50 in the experiment on L929 and with HT-29 was over 10 µM throughout.

For the molecule `CC1(C)CC[C@]2(C(=O)Nc3ccc4ncoc4c3)CC[C@]3(C)[C@H](C(=O)C=C4[C@@]5(C)C=C(C#N)C(=O)C(C)(C)[C@@H]5CC[C@]43C)[C@@H]2C1`, the EC50 with L929 turned out to be 2.84 µM; in the experiment on HT-29 it was 2 µM. Moreover, in the experiment on RAW264.7, the Activity entry is “Dose-dependent-effect”.

For `CC1(C)CC[C@]2(C(=O)n3cnc4ccccc43)CC[C@]3(C)[C@H](C(=O)C=C4[C@@]5(C)C=C(C#N)C(=O)C(C)(C)[C@@H]5CC[C@]43C)[C@@H]2C1`, the EC50 in the experiment with L929 was over 10 µM; in the experiment with HT-29, 2.35 µM.

Turning to `CC1(C)CC[C@]2(C(=O)O)CC[C@]3(C)C(=CC[C@@H]4[C@@]5(C)CC[C@H](O)C(C)(C)[C@@H]5CC[C@]43C)[C@@H]2C1` [OLEANOLIC_ACID], the EC50 with L929 and with HT-29 was over 10 µM throughout.

As to `CC1(C)CC[C@]2(C(=O)NC3(c4ccccc4)CC3)CC[C@]3(C)[C@H](C(=O)C=C4[C@@]5(C)C=C(C#N)C(=O)C(C)(C)[C@@H]5CC[C@]43C)[C@@H]2C1`, the EC50 in the experiment on L929 came out at 4.8 µM; in the experiment with HT-29, 2.09 µM. Also, the Activity result in the experiment on RAW264.7 is “Dose-dependent-effect”.

In the case of `Cn1c(NC(=O)[C@]23CCC(C)(C)C[C@H]2[C@H]2C(=O)C=C4[C@@]5(C)C=C(C#N)C(=O)C(C)(C)[C@@H]5CC[C@@]4(C)[C@]2(C)CC3)nc2ccccc21`, the 50% effective concentration (EC50) is over 10 µM in the experiment with L929 and 3.97 µM in the experiment on HT-29.

As for `CC1(C)CC[C@]2(C(=O)Nc3ccc4sncc4c3)CC[C@]3(C)[C@H](C(=O)C=C4[C@@]5(C)C=C(C#N)C(=O)C(C)(C)[C@@H]5CC[C@]43C)[C@@H]2C1`, the EC50 was over 10 µM in the experiment on L929 and 2.35 µM in the experiment with HT-29.

Take `CC1(C)CC[C@]2(C(=O)Nc3nc4ccccc4s3)CC[C@]3(C)[C@H](C(=O)C=C4[C@@]5(C)C=C(C#N)C(=O)C(C)(C)[C@@H]5CC[C@]43C)[C@@H]2C1`: the EC50 in the experiment with L929 was over 10 µM; in the experiment on HT-29, 3.8 µM.

Turning to `CC1(C)CC[C@]2(C(=O)Nc3ccc4ccccc4c3)CC[C@]3(C)[C@H](C(=O)C=C4[C@@]5(C)C=C(C#N)C(=O)C(C)(C)[C@@H]5CC[C@]43C)[C@@H]2C1`, the EC50 was over 10 µM in the experiment on L929 and 9.56 µM in the experiment on HT-29.

As for `CC1(C)CC[C@]2(C(=O)Nc3ccc4c(c3)OCO4)CC[C@]3(C)[C@H](C(=O)C=C4[C@@]5(C)C=C(C#N)C(=O)C(C)(C)[C@@H]5CC[C@]43C)[C@@H]2C1`, the figures for the EC50 in the experiment on L929 and with HT-29 were over 10 µM and 0.89 µM, respectively.

For the molecule `CC1(C)CC[C@]2(C(=O)Nc3ccc4oncc4c3)CC[C@]3(C)[C@H](C(=O)C=C4[C@@]5(C)C=C(C#N)C(=O)C(C)(C)[C@@H]5CC[C@]43C)[C@@H]2C1`, the EC50 is over 10 µM in the experiment with L929 and 3.28 µM in the experiment on HT-29.

Regarding `CC1(C)CC[C@]2(C(=O)Nc3nsc4ccccc34)CC[C@]3(C)[C@H](C(=O)C=C4[C@@]5(C)C=C(C#N)C(=O)C(C)(C)[C@@H]5CC[C@]43C)[C@@H]2C1`, the EC50 was over 10 µM in the experiment on L929 and 3.96 µM in the experiment with HT-29.

On to `CC1(C)CC[C@]2(C(=O)N3CCC(c4ccccc4)C3)CC[C@]3(C)[C@H](C(=O)C=C4[C@@]5(C)C=C(C#N)C(=O)C(C)(C)[C@@H]5CC[C@]43C)[C@@H]2C1` (some centres not stated), for which the EC50 in the experiment with L929 was over 10 µM; in the experiment with HT-29, 3.81 µM.

As to `CC1(C)CC[C@]2(C(=O)O)CC[C@]3(C)[C@H](C(=O)C=C4[C@@]5(C)C=C(C(N)=O)C(=O)C(C)(C)[C@@H]5CC[C@]43C)[C@@H]2C1`, the half-maximal effective concentration (EC50) is over 10 µM with L929 and 2.2 µM in the experiment on HT-29.

With `COC(=O)[C@]12CCC(C)(C)C[C@H]1[C@H]1C(=O)C=C3[C@@]4(C)C5NC5C(=O)C(C)(C)[C@@H]4CC[C@@]3(C)[C@]1(C)CC2` (some centres not stated), the EC50 with L929 and with HT-29 was over 10 µM in each case.

For `COC(=O)[C@]12CCC(C)(C)C[C@H]1[C@H]1C(=O)C=C3[C@@]4(C)C5C(C(=O)C(C)(C)[C@@H]4CC[C@@]3(C)[C@]1(C)CC2)N5CC#N` (some centres not stated), the EC50 in the experiment with L929 and with HT-29 was over 10 µM each time.

For `CC1(C)CC[C@]2(C(=O)O)[C@H](O)C[C@]3(C)C(=CC[C@@H]4[C@@]5(C)CC[C@H](O)C(C)(C)[C@@H]5CC[C@]43C)[C@@H]2C1`, the EC50 in the experiment with L929 and in the experiment with HT-29 was over 10 µM in each case.

`CC1(C)CC[C@]2(C(=O)N3CCC(c4ccccc4)CC3)CC[C@]3(C)[C@H](C(=O)C=C4[C@@]5(C)C=C(C#N)C(=O)C(C)(C)[C@@H]5CC[C@]43C)[C@@H]2C1`: the EC50 is over 10 µM with L929 and 5.8 µM in the experiment with HT-29.

As to `CC1(C)CC[C@]2(C(=O)n3ncc4ccccc43)CC[C@]3(C)[C@H](C(=O)C=C4[C@@]5(C)C=C(C#N)C(=O)C(C)(C)[C@@H]5CC[C@]43C)[C@@H]2C1`, the half-maximal effective concentration (EC50) in the experiment with L929 and with HT-29 was over 10 µM in each case.

For the molecule `CC1(C)CC[C@]2(C(=O)N3Cc4ccccc4C3)CC[C@]3(C)[C@H](C(=O)C=C4[C@@]5(C)C=C(C#N)C(=O)C(C)(C)[C@@H]5CC[C@]43C)[C@@H]2C1`, the values for the EC50 in the experiment on L929 and in the experiment on HT-29 were over 10 µM and 1.65 µM, respectively.

For the molecule `CC1(C)CC[C@]2(C(=O)Nc3ccc4occc4c3)CC[C@]3(C)[C@H](C(=O)C=C4[C@@]5(C)C=C(C#N)C(=O)C(C)(C)[C@@H]5CC[C@]43C)[C@@H]2C1`, the EC50 with L929 was over 10 µM; in the experiment on HT-29, 1.32 µM.

With `CC1(C)CC[C@]2(C(=O)Nc3ccc4sccc4c3)CC[C@]3(C)[C@H](C(=O)C=C4[C@@]5(C)C=C(C#N)C(=O)C(C)(C)[C@@H]5CC[C@]43C)[C@@H]2C1`, the results for the EC50 in the experiment on L929 and in the experiment on HT-29 were over 10 µM and 4.85 µM, respectively.

The record behind these values is ChEMBL document CHEMBL6177981, “Bardoxolone Derivatives as Novel Pseudo-Natural Necroptosis Inhibitors by Destabilizing HSP90 Client Proteins” (J Med Chem, 2025).
